Experiments:
[1] = humans; after oral paclitaxel administration; cited from earlier work
[2] = Pharmacokinetic study of oral paclitaxel emulsions after cyclosporin A oral pretreatment (paclitaxel plasma levels by HPLC-UV); type: in vivo, FVB Wild-type mice; details: intravenous 10 mg/kg paclitaxel; with versus without 10 mg/kg oral CsA; wild-type mice
Description: Strains: FVB Wild-type mice Source: Breeding stocks of the animal facility of the Netherlands Kancer Institute (NKI) Age: 8-14 weeks Body weight: 18-30 gram Gender: Female Housing: Animal Department of the NKI
Cyclosporin A (Sandimmun®) was diluted 1:25 in water for injection to yield a final concentration of 2 mg/mL. A volume of 5 µL per gram body weight was administered to the animals resulting in a dose of 10 mg/kg of cyclosporin A.
Each cohort through 1 to 3 consisted of 20 Wild-type mice and cohorts.
Cohorts 4 and 5 are reference groups for the calculation of the bioavailability and consisted of 24 animals per cohort.
Oral drug administrations was done by stainless steel gavage using a glass syringe (250 µl: Hamilton luer tip) or a disposable polypropylene syringe (1 ml). The gavage was inserted via the oesophagus into the stomach.
Intravenous drug administrations were done by injection into the tail vein using a disposable polypropylene syringe (300 µl) provided with fixed 29 g needle. […]
Plasma concentration data were reported. Plasma concentrations versus time curves were fitted using the MEDI\WARE software package (version 3.0) and pharmacokinetic parameters: Area under the plasma concentration-time curve (AUC), Maximum plasma level (Cmax), Elimination half-life (t1/2) and Biological availability (F) were calculated.

Compound: CC(=O)O[C@H]1C(=O)[C@@]2(C)[C@H]([C@H](OC(=O)c3ccccc3)[C@]3(O)C[C@H](OC(=O)[C@H](O)[C@@H](NC(=O)c4ccccc4)c4ccccc4)C(C)=C1C3(C)C)[C@]1(OC(C)=O)CO[C@@H]1C[C@@H]2O [paclitaxel, Paclitaxel]
- systemic bioavailability [1]: less than 6%
- increase of intravenously administered paclitaxel AUC by oral pre-treatment with cyclosporin A [2]: 2.35 fold
